The text below walks through data of patent US20250179047A1, “5-[7-(3,4-DIHYDRO-1H-ISOQUINOLINE-2-CARBONYL)-1,2,3,4 TETRAHYDROISOQUINOLIN-6-YL]-1H-PYRROLE-3-CARBOXAMIDE DERIVATIVES, PHARMACEUTICAL COMPOSITIONS CONTAINING THEM AND THEIR USES AS PRO-APOPTOTIC AGENTS” (LES LABORATOIRES SERVIER, priority 2022, published 2025).

pKi: −log10 of the molar value.

Test [1] relates to KMS-12-PE Bcl-2 G101V. The test is described as follows: In vitro cytotoxicity CellTiter-Glo 48 h, KMS-12-PE Bcl-2 G101V. The class given is cell-based. As to conditions: for Ratio (G101V/WT): C50 KMS-12-PE Bcl-2 G101V over C50 KMS-12-PE Bcl-2 WT; for IC50: Homo sapiens, KMS-12-PE, 48 h, CellTiter-Glo, C50 = concentration needed to reach 50% of the cellular viability. An outline of the steps:
(§1)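 Transduce KMS-12-PE with Bcl-2 WT or G101V lentivirus, then FACS-sort RFP-positive cells. Add compounds in an 11-point dilution series and incubate 48 h at 37 °C. Measure ATP-based luminescence with CellTiter-Glo and derive C50 (50% viability).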
For orientation: Cellular ATP, detected with luciferase, serves as a proxy for viable cell number.

In test [2] the target is BCL2 G101V (Homo sapiens, UniProt P10415, G101V). The test is described as follows: TR-FRET competitive binding assay, BCL2 G101V. The settings on record: BCL2 G101V; Ki determined from IC50; read-out: TR_FRET EKI_Bcl2 G101V. The gist of the method: (§2)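 Terbium-labelled N-terminal Halo-fusion BCL2 or BCLXL (E. coli), 0.5 nM, competed against fluorescein-labelled PUMA peptide (2 or 20 nM) for 2 h at 23° C in 50 mM Hepes pH 7.5, 150 mM NaCl, 5% DMSO. TR-FRET 520/495 nm ratio gave IC50 by four-parameter fit; Ki derived from IC50.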
For orientation: Time-resolved FRET reads energy transfer from a long-lived donor to a nearby acceptor.

Test [3] relates to BCL2 G101V. Nature of the test: TR-FRET competitive binding assay, BCL2 G101V. The arrangement: species or system human. As to conditions: ratio Ki BCL2 G101V / Ki BCL2 WT. The gist of the method:
as §2

The target in test [4] is BCL2 F104I (Homo sapiens, UniProt P10415, F104I). Nature of the test: TR-FRET competitive binding assay, BCL2 F104I. The settings on record: Ki determined from IC50, read-out: TR_FRET EKI_Bcl2 F104I. The gist of the method:
as §2

Test [5] addresses BCL2 D103Y (Homo sapiens, UniProt P10415, D103Y). Nature of the test: TR-FRET competitive binding assay, BCL2 D103Y. The settings on record: Ki determined from IC50, read-out: TR_FRET EKI_Bcl2 D103Y. An outline of the steps:
as §2

In test [6] the target is BCL2 WT (Homo sapiens (Human), UniProt P10415). Nature of the test: TR-FRET competitive binding assay, BCL2 WT. The settings on record: Ki determined from IC50, read-out: TR_FRET EKI_Bcl2 WT. The gist of the method: as §2
Test [7] relates to KMS-12-PE Bcl-2 WT. The test is described as follows: In vitro cytotoxicity CellTiter-Glo 48 h, KMS-12-PE Bcl-2 WT. Format: cell-based. As to conditions: C50 = concentration needed to reach 50% of the cellular viability. An outline of the steps: as §1
Test [8] concerns the target BCL2 D111A (Homo sapiens, UniProt P10415, D111A). Nature of the test: TR-FRET competitive binding assay, BCL2 D111A. As to conditions: Ki determined from IC50, read-out: TR_FRET EKI_Bcl2 D111A. The gist of the method:
as §2

For test [9], the target named is BCLXL WT (Homo sapiens (Human), UniProt Q07817). The test is described as follows: TR-FRET competitive binding assay, BCLXL WT. The settings on record: for pKi: BCLXL WT, Ki determined from IC50, read-out: TR_FRET EKI BclxL; for TR_FRET EKI BCLxL/WT selectivty ratio: ratio Ki BCLxL / Ki BCL2 WT. The gist of the method: as §2
BCLXL WT, sequence (Q07817 other isoform, or with tags, fused parts or gaps): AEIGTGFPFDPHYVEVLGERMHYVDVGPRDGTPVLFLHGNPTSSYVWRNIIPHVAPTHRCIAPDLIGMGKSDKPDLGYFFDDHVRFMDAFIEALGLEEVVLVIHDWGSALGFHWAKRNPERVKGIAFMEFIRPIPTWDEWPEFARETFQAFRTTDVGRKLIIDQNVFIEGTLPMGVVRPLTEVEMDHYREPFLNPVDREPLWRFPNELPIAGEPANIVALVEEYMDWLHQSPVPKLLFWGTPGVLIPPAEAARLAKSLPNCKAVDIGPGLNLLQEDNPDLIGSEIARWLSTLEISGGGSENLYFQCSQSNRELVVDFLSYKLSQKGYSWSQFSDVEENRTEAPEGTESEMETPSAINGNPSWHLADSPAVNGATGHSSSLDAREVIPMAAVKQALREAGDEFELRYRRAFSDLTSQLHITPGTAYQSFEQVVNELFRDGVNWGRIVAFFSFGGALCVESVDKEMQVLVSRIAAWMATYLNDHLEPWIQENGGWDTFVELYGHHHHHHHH

Usually IC50 stands for the point on the concentration scale where inhibition reaches its midpoint. In the case of `Cc1c(N(C(=O)c2cc(-c3cc4c(cc3C(=O)N3Cc5ccccc5C[C@H]3C)CN(C(=O)Cc3ccc(OCCN(C)C5CC5)nc3)CC4)n(C)c2C)c2ccc(O)cc2)cc(C#N)n1C` [Example 61, N-(5-cyano-1,2-dimethyl-1H-pyrrol-3-yl)-5-{2-[2-(6-{2-[cyclopropyl(methyl)amino]ethoxy}pyridin-3-yl)acetyl]-7-[(3R)-3-methyl-1,2,3,4-tetrahydroisoquinoline-2-carbonyl]-1,2,3,4-tetrahydroisoquinolin-6-yl}-N-(4-hydroxyphenyl)-1,2-dimethyl-1H-pyrrole-3-carboxamide], the “Ratio (G101V/WT)” value in test [1] was 5.76. The IC50 in [1] amounted to 0.0824 µM; in test [7] (Homo sapiens, KMS-12-PE) it was 0.0143 µM. For the same compound, the pKi in test [2] is 9.70; in [4] it was 8.99; in test [5], 9.89; in [6], 10.40; in test [8], 9.74; in test [9] it was 8.82. Also, in [3], the “TR_FRET EKI G101V/WT selectivty ratio” value came to 5.0. Further, the “TR_FRET EKI BCLxL/WT selectivty ratio” value in test [9] amounted to 35.7.
As to `Cc1c(C(=O)N(c2ccc(O)cc2)c2cnc3c(cnn3C)c2)cc(-c2cc3c(cc2C(=O)N2Cc4ccccc4C[C@H]2C)CN(C(=O)Cc2ccc(OCCN4CCOCC4)cc2)CC3)n1C` [Example 62, N-(4-hydroxyphenyl)-1,2-dimethyl-5-(7-{[(3R)-3-methyl-3,4-dihydro-1H-isoquinolin-2-yl]carbonyl}-2-(2-{4-[2-(morpholin-4-yl)ethoxy]phenyl}acetyl)-3,4-dihydro-1H-isoquinolin-6-yl)-N-{1-methylpyrazolo[3,4-b]pyridin-5-yl}pyrrole-3-carboxamide], in test [1], the “Ratio (G101V/WT)” value was determined as 7.56. The half-inhibitory concentration (IC50) in test [1] was determined as 0.0892 µM; in test [7] (Homo sapiens, KMS-12-PE), 0.0118 µM. Also, the pKi was 9.52 in [2]; 9.42 in [4]; 9.33 in test [5]; 10.22 in [6]; 10.05 in test [8]; 8.62 in [9]. Besides, in [3], the “TR_FRET EKI G101V/WT selectivty ratio” value stood at 5.5. In addition, the “TR_FRET EKI BCLxL/WT selectivty ratio” value in test [9] stood at 38.7.
On to `Cc1c(N(C(=O)c2cc(-c3cc4c(cc3C(=O)N3Cc5ccccc5C[C@H]3C)CN(C(=O)Cc3ccc(OCCN5CCOCC5)cc3)CC4)n(C)c2C)c2ccccc2)cc(C#N)n1C` [Example 65, N-(5-cyano-1,2-dimethylpyrrol-3-yl)-1,2-dimethyl-5-(7-{[(3R)-3-methyl-3,4-dihydro-1H-isoquinolin-2-yl]carbonyl}-2-(2-{4-[2-(morpholin-4-yl)ethoxy]phenyl}acetyl)-3,4-dihydro-1H-isoquinolin-6-yl)-N-phenylpyrrole-3-carboxamide], for which the “Ratio (G101V/WT)” value in test [1] stood at 15. Further, the IC50 in test [1] came to 0.0414 µM; in test [7], 0.0028 µM. Besides, the pKi in test [2] is 9.15; in test [4], 8.95; in test [5] it was 9.10; in test [6] it was 10.10; in test [8] it was 9.85; in test [9], 8.39. Moreover, the “TR_FRET EKI G101V/WT selectivty ratio” value in test [3] turned out to be 9.4. For the same compound, the “TR_FRET EKI BCLxL/WT selectivty ratio” value in test [9] is reported as 52.6.
Take `Cc1c(C(=O)N(c2ccc(O)cc2)c2cc(C#N)n(C3CC3)c2C)cc(-c2cc3c(cc2C(=O)N2Cc4ccccc4C[C@H]2C)CN(C(=O)Cc2ccc(OCCN4CCOCC4)cc2)CC3)n1C` [Example 71, N-(5-cyano-1-cyclopropyl-2-methyl-pyrrol-3-yl)-N-(4-hydroxyphenyl)-1,2-dimethyl-5-[7-[(3R)-3-methyl-3,4-dihydro-1H-isoquinoline-2-carbonyl]-2-[2-[4-(2-morpholinoethoxy)phenyl]acetyl]-3,4-dihydro-1H-isoquinolin-6-yl]pyrrole-3-carboxamide]: the “Ratio (G101V/WT)” value in test [1] came to 3.88. Also, the IC50 turned out to be 0.0356 µM in test [1] and 0.0092 µM in test [7] (Homo sapiens, KMS-12-PE). The pKi was 8.92 in test [2]; 8.99 in [4]; 9.17 in test [5]; 9.82 in [6]; 9.51 in test [8]; 8.80 in test [9]. Also, in test [3], the “TR_FRET EKI G101V/WT selectivty ratio” value worked out at 8.0. The “TR_FRET EKI BCLxL/WT selectivty ratio” value in test [9] amounted to 10.7.
On to `COc1ncc(N(C(=O)c2cc(-c3cc4c(cc3C(=O)N3Cc5ccccc5C[C@H]3C)CN(C(=O)Cc3ccc(OCCN5CCOCC5)cc3)CC4)n(C)c2C)c2ccc(O)cc2)cc1F` [Example 72, N-(5-fluoro-6-methoxypyridin-3-yl)-N-(4-hydroxyphenyl)-1,2-dimethyl-5-(7-{[(3R)-3-methyl-3,4-dihydro-1H-isoquinolin-2-yl]carbonyl}-2-(2-{4-[2-(morpholin-4-yl)ethoxy]phenyl}acetyl)-3,4-dihydro-1H-isoquinolin-6-yl)pyrrole-3-carboxamide], for which the “Ratio (G101V/WT)” value in [1] is 6.42. The concentration for half-maximal inhibition (IC50) in test [1] was found to be 0.0427 µM; in test [7] (Homo sapiens, KMS-12-PE), 0.0066 µM. Also, the pKi in [2] is 9.05; in [4], 8.93; in [5], 9.43; in test [6], 9.85; in test [8] it was 9.68; in test [9], 8.43. The “TR_FRET EKI G101V/WT selectivty ratio” value in test [3] is given as 6.1. Further, the “TR_FRET EKI BCLxL/WT selectivty ratio” value in test [9] is listed as 26.4.
For the compound `Cc1c(N(C(=O)c2cc(-c3cc4c(cc3C(=O)N3Cc5ccccc5C[C@H]3CCN3CCCCC3)CN(C(=O)Cc3ccc(OCCN5CCOCC5)cc3F)CC4)n(C)c2C)c2ccc(O)cc2)cc(C#N)n1C` [Example 74, N-(5-cyano-1,2-dimethyl-1H-pyrrol-3-yl)-5-[2-(2-{2-fluoro-4-[2-(morpholin-4-yl)ethoxy]phenyl}acetyl)-7-[(3S)-3-[2-(piperidin-1-yl)ethyl]-1,2,3,4-tetrahydroisoquinoline-2-carbonyl]-1,2,3,4-tetrahydroisoquinolin-6-yl]-N-(4-hydroxyphenyl)-1,2-dimethyl-1H-pyrrole-3-carboxamide], in test [1], the “Ratio (G101V/WT)” value worked out at 2.36. Also, the concentration for half-maximal inhibition (IC50) in test [1] amounted to 0.0885 µM; in [7] (Homo sapiens, KMS-12-PE), 0.0375 µM. Further, the pKi was 10.00 in [2]; 10.40 in test [4]; 10.15 in test [5]; 10.70 in test [6]; 10.05 in [8]; 8.96 in test [9]. Further, the “TR_FRET EKI G101V/WT selectivty ratio” value in test [3] was determined as 2.8. The “TR_FRET EKI BCLxL/WT selectivty ratio” value in [9] stood at 52.4.
With `COc1ccc(N(C(=O)c2cc(-c3cc4c(cc3C(=O)N3Cc5ccccc5C[C@H]3C)CN(C(=O)Cc3ccc(OCCN5CCOCC5)cc3)CC4)n(C)c2C)c2ccc(O)cc2)cc1C#N` [Example 81, N-(3-cyano-4-methoxyphenyl)-N-(4-hydroxyphenyl)-1,2-dimethyl-5-(7-{[(3R)-3-methyl-3,4-dihydro-1H-isoquinolin-2-yl]carbonyl}-2-(2-{4-[2-(morpholin-4-yl)ethoxy]phenyl}acetyl)-3,4-dihydro-1H-isoquinolin-6-yl)pyrrole-3-carboxamide], the “Ratio (G101V/WT)” value in test [1] is 5.6429. The IC50 came out at 0.0395 µM in [1] and 0.007 µM in test [7] (Homo sapiens, KMS-12-PE). For the same compound, the pKi is 9.22 in [2]; 9.28 in test [4]; 9.34 in [5]; 9.72 in [6]; 9.40 in [8]; 8.28 in test [9]. Besides, the “TR_FRET EKI G101V/WT selectivty ratio” value in test [3] stood at 2.9. Moreover, in [9], the “TR_FRET EKI BCLxL/WT selectivty ratio” value was found to be 27.9.
For `Cc1c(N(C(=O)c2cc(-c3cc4c(cc3C(=O)N3Cc5ccccc5C[C@H]3CN3CCC(F)CC3)CN(C(=O)Cc3ccc(OCCN5CCOCC5)cc3F)CC4)n(C)c2C)c2ccc(O)cc2)cc(C#N)n1C` [Example 86, N-(5-cyano-1,2-dimethyl-1H-pyrrol-3-yl)-5-[2-(2-{2-fluoro-4-[2-(morpholin-4-yl)ethoxy]phenyl}acetyl)-7-[(3S)-3-[(4-fluoropiperidin-1-yl)methyl]-1,2,3,4-tetrahydroisoquinoline-2-carbonyl]-1,2,3,4-tetrahydroisoquinolin-6-yl]-N-(4-hydroxyphenyl)-1,2-dimethyl-1H-pyrrole-3-carboxamide], in test [1], the “Ratio (G101V/WT)” value came to 5.21. In addition, the IC50 was 0.0249 µM in [1] and 0.0048 µM in test [7] (Homo sapiens, KMS-12-PE). For the same compound, the pKi in [2] is 9.30; in test [4], 9.43; in [5] it was 9.38; in [6], 9.89; in [8] it was 9.64; in test [9] it was 8.80. Besides, in test [3], the “TR_FRET EKI G101V/WT selectivty ratio” value was determined as 3.9. In addition, the “TR_FRET EKI BCLxL/WT selectivty ratio” value in test [9] is on record as 12.3.
